Data on one compound can be found in patent US20160022751A1, “NOVEL COMPOSITION FOR TREATING ALZHEIMER'S DISEASE AND IMPROVING COGNITIVE FUNCTION OF ALZHEIMER'S PATIENTS” (GANGNEUNG-WONJU NATIONAL UNIVERSITY INDUSTRY ACADEMY …, priority 2014, published 2016).

Common to all, as to format: cell-based, human
The test system of experiment [1] is clathrin. Nature of the experiment: Clathrin immunocytochemistry in HMO6 cells. Particulars: Rg3 5 μg/ml, 24 h, immunocytochemistry (FIG. 20). As for the experimental part: FIG. 20 is a fluorescence microscopic image showing a result of immunocytochemical analysis investigating the expression of caveolin and clathrin in HMO6 cells treated with or without Rg3. HMO6 cells were treated with Rg3 (5 μg/ml) for 24 h after plated on chamber slides and then the cells were stained with primary antibodies binding specifically to caveolin and clathrin, respectively and counterstained with DAPI. The length of scale bar represents 10 μm.
The present inventors investigated whether ginsenosides can induce the expression of SRA, clathrin, caveolin 1, NEP or IDE and the differentiation of neurons actually through immunocytochemical analysis (ICC) and microscopic observations. Specifically, Cultured HMO6 cells were fixed in 4% paraformaldehyde (in 1×PBS) for 15 min, washed twice with 1×PBS supplemented with 100 mM glycine for 5 min, and incubated with permeabilization buffer consisting of 0.1% Triton X-100 (Sigma-Aldrich, USA) in 1×PBS for 30 min at room temperature. Blocking was performed with 1% bovine serum albumin (BSA, Sigma-Aldrich, USA) for 30 min at room temperature. Then, SRA, clathrin, caveolin1, NEP, or IDE mouse monoclonal antibody (1:200; Santa Cruz Biotechnology, USA) was added to 1% BSA in PBS with Tween 20 (PBST) and incubated for 2 h at room temperature. […]

Experiment [2] has as its system IDE. Nature of the experiment: IDE protein expression in HMO6 cells (western blot, immunocytochemistry). Particulars: 5 μg/ml Rg3, 24 h (FIG. 19). As for the experimental part: FIG. 19 represents an images showing a result of western blot analysis of the expression of NEP (neprilysin) and IDE (insulin-degrading enzyme) in HMO6 cells (A); graphs representing the above result quantitatively (B and C), and fluorescence microscopic images representing immunocytochemical analyses (D and E). The expression of NEP and IDE in HMO6 cells was analyzed by western blot analysis and immunocytochemistry after treating Aβ42 (5 μM) or Rg3 (2.5 or 5 μg/ml) for 24 h to HMO6 cells in serum-free DMEM medium plated on 60 mm cell culture plates or chamber slides. The results are shown as mean±SD. * P<0.05, ** P<0.01, *** P<0.001.
HMO6 cells were lysed in 1% RIPA buffer containing protease and phosphatase inhibitors (Roche, Mannheim, Germany) and whole-cell lysates were separated on 10% sodium dodecyl sulfate-polyacrylamide gel electrophoresis. After electrophoresis, the proteins were transferred to polyvinylidene fluoride membranes, and the membranes were blocked with 5% skim milk in Tris-buffered saline solution containing 0.1% Tween-20. The membranes were then immunoblotted with primary antibodies, anti-phospho-p38, anti-p38, anti-phospho-ERK, anti-ERK, and anti-f3-actin (Santa Cruz Biotechnology, USA), followed by incubation with horseradish peroxidase-conjugated anti-rabbit or anti-mouse secondary antibodies (Stressgen, USA). […]
A general note: A western blot detects proteins with antibodies after separation by electrophoresis.

Experiment [3] has as its system ERK. Nature of the experiment: ERK phosphorylation in HMO6 cells (western blot). Particulars: Rg3 5 μg/ml, western blot (FIG. 18). As for the experimental part:
FIG. 18 is a photograph showing a result of western blot analysis for confirming the degree of phosphorylation of ERK (extracellular-regulated kinase) and p38, according to an embodiment of the present invention. Depending on the presence of Rg3, the levels of phospho-ERK and phospho-p38 protein were investigated by immune-blotting. HMO6 cells were treated with Rg3 (5 μg/ml) after plated on 60 mm cell culture plates and western blot analysis was performed after the cells were placed in phenol red negative/sere-free DMEM medium for 1 h. The western blot analysis was carried out three times independently.
HMO6 cells were lysed in 1% RIPA buffer containing protease and phosphatase inhibitors (Roche, Mannheim, Germany) and whole-cell lysates were separated on 10% sodium dodecyl sulfate-polyacrylamide gel electrophoresis. After electrophoresis, the proteins were transferred to polyvinylidene fluoride membranes, and the membranes were blocked with 5% skim milk in Tris-buffered saline solution containing 0.1% Tween-20. The membranes were then immunoblotted with primary antibodies, anti-phospho-p38, anti-p38, anti-phospho-ERK, anti-ERK, and anti-f3-actin (Santa Cruz Biotechnology, USA), followed by incubation with horseradish peroxidase-conjugated anti-rabbit or anti-mouse secondary antibodies (Stressgen, USA). Blots were developed using an enhanced chemiluminescent solution (Thermo, USA).

As to `CC(C)=CCC[C@](C)(O)[C@H]1CC[C@]2(C)[C@@H]1[C@H](O)C[C@@H]1[C@@]3(C)CC[C@H](O[C@@H]4O[C@H](CO)[C@@H](O)[C@H](O)[C@H]4O[C@@H]4O[C@H](CO)[C@@H](O)[C@H](O)[C@H]4O)C(C)(C)[C@@H]3CC[C@]12C` [ginsenoside Rg3], the clathrin expression entry in experiment [1] is listed as “highly expressed”. Also, in experiment [2], the “IDE expression in cells” value is reported as “distinctively expressed”. Also, the “phosphorylation of ERK” value in experiment [3] was “promoted the phosphorylation”.
